Results taken from PMC4858680, “A platinum-based hybrid drug design approach to circumvent acquired resistance to molecular targeted tyrosine kinase inhibitors” (Scientific Reports, 2016).
Where a chain is given by its changes, count along the chain named. Like-named read-outs stand apart in the source and are kept apart here.

Columns and labels:
[1] = target: T1, TYRO3 (Homo sapiens, UniProt Q06418); format: binding; conditions: for Percent control: 10 μM
T1 construct: purchased DiscoveRx Corporation (KINOMEscan service)
T1 sequence (Q06418 41-890): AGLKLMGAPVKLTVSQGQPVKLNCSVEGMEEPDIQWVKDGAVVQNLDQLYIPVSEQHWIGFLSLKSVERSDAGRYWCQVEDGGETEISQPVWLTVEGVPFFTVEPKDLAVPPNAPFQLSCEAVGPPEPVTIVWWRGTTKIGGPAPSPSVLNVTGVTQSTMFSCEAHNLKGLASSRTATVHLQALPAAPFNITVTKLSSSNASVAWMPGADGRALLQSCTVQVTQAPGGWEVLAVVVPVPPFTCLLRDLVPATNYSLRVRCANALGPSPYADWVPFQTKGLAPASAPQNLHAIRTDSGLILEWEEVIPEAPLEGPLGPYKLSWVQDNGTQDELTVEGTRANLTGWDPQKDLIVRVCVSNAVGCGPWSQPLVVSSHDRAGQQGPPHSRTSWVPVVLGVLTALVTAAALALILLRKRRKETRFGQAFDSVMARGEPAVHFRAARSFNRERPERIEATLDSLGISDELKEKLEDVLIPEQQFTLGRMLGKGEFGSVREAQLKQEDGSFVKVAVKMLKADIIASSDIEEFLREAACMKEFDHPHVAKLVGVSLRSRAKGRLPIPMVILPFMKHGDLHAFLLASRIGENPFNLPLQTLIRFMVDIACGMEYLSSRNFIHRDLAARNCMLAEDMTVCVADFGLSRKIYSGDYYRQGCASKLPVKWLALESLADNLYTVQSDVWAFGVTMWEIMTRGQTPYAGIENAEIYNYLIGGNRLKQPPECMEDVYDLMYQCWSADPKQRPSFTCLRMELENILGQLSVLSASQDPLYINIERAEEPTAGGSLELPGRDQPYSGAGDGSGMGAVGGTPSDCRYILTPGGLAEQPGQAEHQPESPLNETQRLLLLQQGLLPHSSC

[2] = target: T2, FLT3(R834Q) (Homo sapiens, UniProt P36888, R834Q)
T2 sequence (P36888 27-993 R834Q): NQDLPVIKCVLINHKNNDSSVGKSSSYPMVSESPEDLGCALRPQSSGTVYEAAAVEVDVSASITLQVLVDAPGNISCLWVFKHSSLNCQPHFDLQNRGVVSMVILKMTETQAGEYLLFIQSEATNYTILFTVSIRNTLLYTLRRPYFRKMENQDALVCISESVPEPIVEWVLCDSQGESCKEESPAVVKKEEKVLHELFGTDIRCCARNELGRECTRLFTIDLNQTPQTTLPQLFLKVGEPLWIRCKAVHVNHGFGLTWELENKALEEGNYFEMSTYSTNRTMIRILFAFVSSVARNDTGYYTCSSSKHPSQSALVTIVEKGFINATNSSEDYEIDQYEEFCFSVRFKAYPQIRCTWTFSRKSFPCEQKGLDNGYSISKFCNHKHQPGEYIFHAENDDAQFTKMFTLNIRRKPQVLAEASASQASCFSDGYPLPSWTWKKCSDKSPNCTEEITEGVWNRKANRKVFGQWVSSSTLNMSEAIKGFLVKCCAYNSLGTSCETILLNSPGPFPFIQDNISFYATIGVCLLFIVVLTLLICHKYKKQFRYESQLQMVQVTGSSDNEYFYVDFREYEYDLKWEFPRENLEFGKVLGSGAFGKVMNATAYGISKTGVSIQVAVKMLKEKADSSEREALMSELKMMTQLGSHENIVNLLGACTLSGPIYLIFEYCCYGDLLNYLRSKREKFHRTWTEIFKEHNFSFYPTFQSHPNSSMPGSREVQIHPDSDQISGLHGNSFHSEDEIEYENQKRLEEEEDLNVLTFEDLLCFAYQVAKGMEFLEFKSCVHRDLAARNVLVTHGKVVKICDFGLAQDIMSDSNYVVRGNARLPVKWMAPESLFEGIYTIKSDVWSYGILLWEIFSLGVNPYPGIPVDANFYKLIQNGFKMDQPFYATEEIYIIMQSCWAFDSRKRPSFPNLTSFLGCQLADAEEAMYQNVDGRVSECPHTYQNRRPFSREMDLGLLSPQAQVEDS

[3] = target: FLT1 (Homo sapiens, UniProt P17948); conditions: 10 μM
FLT1, sequence (P17948 27-1338): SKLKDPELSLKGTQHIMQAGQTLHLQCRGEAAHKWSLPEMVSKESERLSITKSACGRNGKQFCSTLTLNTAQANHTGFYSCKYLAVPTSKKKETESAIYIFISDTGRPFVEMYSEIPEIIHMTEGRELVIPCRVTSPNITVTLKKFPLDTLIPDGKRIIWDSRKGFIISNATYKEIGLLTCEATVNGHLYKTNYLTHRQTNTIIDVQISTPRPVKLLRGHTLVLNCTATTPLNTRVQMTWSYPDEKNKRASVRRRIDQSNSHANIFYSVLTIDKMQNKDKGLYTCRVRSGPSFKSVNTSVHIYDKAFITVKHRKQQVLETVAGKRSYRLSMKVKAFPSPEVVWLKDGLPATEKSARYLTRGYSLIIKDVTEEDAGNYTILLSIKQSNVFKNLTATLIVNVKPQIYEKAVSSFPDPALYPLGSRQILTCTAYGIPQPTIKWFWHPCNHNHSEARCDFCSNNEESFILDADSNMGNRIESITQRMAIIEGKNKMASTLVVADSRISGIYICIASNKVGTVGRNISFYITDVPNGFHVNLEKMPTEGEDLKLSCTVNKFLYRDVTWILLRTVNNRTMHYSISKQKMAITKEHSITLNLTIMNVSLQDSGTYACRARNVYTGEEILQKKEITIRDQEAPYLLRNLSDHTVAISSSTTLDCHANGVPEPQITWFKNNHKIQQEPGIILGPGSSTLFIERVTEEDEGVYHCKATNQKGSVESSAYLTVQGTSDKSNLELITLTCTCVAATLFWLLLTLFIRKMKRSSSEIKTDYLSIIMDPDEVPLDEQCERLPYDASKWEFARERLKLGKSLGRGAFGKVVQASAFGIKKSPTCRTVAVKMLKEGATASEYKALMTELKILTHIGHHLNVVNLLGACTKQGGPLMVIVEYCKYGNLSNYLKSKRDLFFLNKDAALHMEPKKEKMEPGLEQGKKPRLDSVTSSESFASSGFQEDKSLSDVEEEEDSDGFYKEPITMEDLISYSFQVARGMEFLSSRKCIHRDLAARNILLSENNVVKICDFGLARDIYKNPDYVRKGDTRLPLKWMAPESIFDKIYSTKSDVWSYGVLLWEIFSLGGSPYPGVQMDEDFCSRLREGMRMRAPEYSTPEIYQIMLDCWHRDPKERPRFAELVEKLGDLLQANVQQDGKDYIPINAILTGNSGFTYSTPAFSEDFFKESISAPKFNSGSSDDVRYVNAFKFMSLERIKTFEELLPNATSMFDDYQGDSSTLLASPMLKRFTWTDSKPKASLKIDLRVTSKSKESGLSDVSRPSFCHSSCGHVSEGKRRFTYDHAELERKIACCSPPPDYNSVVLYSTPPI

[4] = target: T3, FLT3 (Homo sapiens, UniProt P36888)
T3 sequence (P36888 27-993): T2 sequence (P36888 27-993 R834Q) with Q808R

SMILES	Percent control [1] [%]	Percent control ([2]; FLT3(R834Q), 10 μM) [%]	Percent control [3] [%]	Percent control ([4]; FLT3, 10 μM) [%]	Percent control [2]	Percent control [4]	remaining binding at 10 µM ([1]; read-out: Percent control) [%]
Cc1ccc(NC(=O)c2ccc(CN3CCN(C)CC3)cc2)cc1Nc1nccc(-c2cccnc2)n1 [Imatinib, reference compound]	100	100	100	100	–	–	–
Cc1ccc(NC(=O)c2ccc(CN3CCN(C)CC3)cc2)cc1Nc1nccc(-c2cccnc2)[n+]1[Pt-2]1([Cl])[NH2+]C2CCCCC2[NH2+]1 (stereo not shown) [1b, oxaliplatin-imatinib]	80	94	85	88	–	–	–
COc1cc2c(Nc3ccc(Br)cc3F)[n+]([Pt-2]3([Cl])[NH2+]C4CCCCC4[NH2+]3)cnc2cc1OCC1CCN(C)CC1 (stereo not shown) [3b, oxaliplatin-vandetanib]	0	–	–	–	89	49	–
C#Cc1cccc(Nc2c3cc(OCCOC)c(OCCOC)cc3nc[n+]2[Pt@SP2-2]([NH3+])([NH3+])[Cl])c1 [2a, cisplatin-erlotinib]	85	–	88	–	80	75	–
COc1cc2c(Nc3ccc(Br)cc3F)ncnc2cc1OCC1CCN(C)CC1 [Vandetanib, reference compound]	–	–	–	–	–	–	0.9
